From patent US9302999B2, “Substituted triazoles as herbicides” (E. I. DU PONT DE NEMOURS AND COMPANY, priority 2012, dated 2016)

Assays:
[1] = test system: winter wheat (Triticum aestivum); assay: Test C pre-/postemergence: winter wheat; format: in vivo
Method in brief: (§1)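 Visual injury scored 0–100 (100 = complete control) against untreated controls after 13–15 greenhouse days. Surfactant-containing solvent formulations applied either to soil after sowing (loam/sand) or over 1- to 4-leaf plants, 2–18 cm tall.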

[2] = test system: pigweed (Amaranthus retroflexus); assay: Test C pre-/postemergence: pigweed; format: in vivo
Method in brief: as §1

[3] = test system: barnyardgrass (Echinochloa crus-galli); assay: Test B flooded paddy: barnyardgrass; format: in vivo; settings: Flood; 250 g ai/ha; applied to paddy water at 2-leaf stage; visually evaluated after 13 to 15 days
Method in brief: (§2)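 Two-leaf-stage plants, pots flooded (3 cm above soil) and treated through the water, which stayed at that depth. After 13–15 days in greenhouse conditions, visual assessment versus controls: 0 is no effect, 100 complete control, dash means no result.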

[4] = test system: galium (catchweed bedstraw, Galium aparine); assay: Test C pre-/postemergence: galium; format: in vivo
Method in brief: as §1

Barnyardgrass [5] = assay: Test C postemergence: barnyardgrass; format: in vivo, Echinochloa crus-galli; settings: 125 g ai/ha, scale 0 to 100, 0 no effect, 100 complete control
[6] = test system: velvetleaf (Abutilon theophrasti); assay: Test C pre-/postemergence: velvetleaf; format: in vivo
Method in brief: as §1

wild oat (Avena fatua) = assay: Test C pre-/postemergence: wild oat; format: in vivo; settings: Postemergence
Method in brief: as §1

rice (Oryza sativa) = assay: Test B flooded paddy: rice; format: in vivo; settings: Flood; 250 g ai/ha; applied to paddy water at 2-leaf stage; visually evaluated after 13 to 15 days
Method in brief: as §2

Barnyardgrass [7] = assay: Test C preemergence: barnyardgrass; format: in vivo, Echinochloa crus-galli
[8] = test system: velvetleaf (Abutilon theophrasti); assay: Test A pre-/postemergence: velvetleaf; format: in vivo
Method in brief: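 Soil medium was loam blended with sand; treatments pre- and postemergence were applied concurrently, postemergence at one- to two-leaf stage. Approximately ten days in greenhouse preceded visual comparison with untreated controls, scored 0 (no effect) to 100 (complete control).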

[9] = Postemergence, 31 g ai/ha, scale 0 to 100 (0 no effect, 100 complete control)
[10] = Postemergence, 62 g ai/ha, scale 0 to 100 (0 no effect, 100 complete control)
[11] = Postemergence, 125 g ai/ha, scale 0 to 100, 0 no effect, 100 complete control
[12] = Postemergence, 250 g ai/ha, scale 0 to 100 (0 no effect, 100 complete control)
[13] = Preemergence, 31 g ai/ha, scale 0 (no effect) to 100 (complete control)
[14] = Preemergence, 62 g ai/ha, scale of 0 to 100, 0 is no effect, 100 is complete control
[15] = Preemergence, 125 g ai/ha, scale 0 to 100, 0 no effect, 100 complete control
[16] = Preemergence, 250 g ai/ha, scale 0 to 100, 0 no effect, 100 complete control
[17] = 31 g ai/ha, scale 0 to 100 (0 no effect, 100 complete control)
[18] = 62 g ai/ha, scale 0 to 100 (0 no effect, 100 complete control)
[19] = 125 g ai/ha, scale 0 to 100, 0 no effect, 100 complete control
[20] = 62 g ai/ha, scale of 0 to 100, 0 is no effect, 100 is complete control
[21] = Postemergence, 125 g ai/ha, 0 to 100 scale, 0 is no effect, 100 is complete control
[22] = Preemergence, 125 g ai/ha, 0 to 100 scale where 0 is no effect and 100 is complete control
[23] = Preemergence, 500 g ai/ha, 0 to 100 scale (0 no effect, 100 complete control)
[24] = Postemergence, 16 g ai/ha, scale 0 to 100, 0 no effect, 100 complete control
[25] = Preemergence, 16 g ai/ha, scale 0 (no effect) to 100 (complete control)
[26] = Preemergence, 31 g ai/ha, scale of 0 to 100, 0 is no effect, 100 is complete control

Question: Which results are given for CCCc1nn(-c2ccc(F)cc2)nc1Oc1ccnc(C(F)(F)F)c1 [Compound 168]?
Answer: Plant response rating, Wheat [1, 9]: 20; Plant response rating, Wheat [1, 10]: 20; Plant response rating, Wheat [1, 11]: 35; Plant response rating, Wheat [1, 12]: 45; Plant response rating, Wheat [1, 13]: 5; Plant response rating, Wheat [1, 14]: 40; Plant response rating, Wheat [1, 15]: 40; Plant response rating, Wheat [1, 16]: 60; Plant response rating, Pigweed [2, 9]: 80; Plant response rating, Pigweed [2, 10]: 98; Plant response rating, Pigweed [2, 11]: 98; Plant response rating, Pigweed [2, 12]: 98; Plant response rating, Pigweed [2, 13]: 100; Plant response rating, Pigweed [2, 14]: 100; Plant response rating, Pigweed [2, 15]: 100; Plant response rating, Pigweed [2, 16]: 100; Plant response rating, Barnyardgrass (0 to 100 scale, 0 is no effect, 100 is complete control) [3]: 80; Plant response rating, Galium [4, 9]: 90; Plant response rating, Galium [4, 10]: 90; Plant response rating, Galium [4, 11]: 90; Plant response rating, Galium [4, 12]: 95; Plant response rating, Galium [4, 13]: 85; Plant response rating, Galium [4, 14]: 100; Plant response rating, Galium [4, 15]: 100; Plant response rating, Galium [4, 16]: 100; Plant response rating, Barnyardgrass (Barnyardgrass [5]): 90; Plant response rating, Velvetleaf [6, 9]: 60; Plant response rating, Velvetleaf [6, 10]: 75; Plant response rating, Velvetleaf [6, 11]: 80; Plant response rating, Velvetleaf [6, 12]: 90; Plant response rating, Velvetleaf [6, 13]: 80; Plant response rating, Velvetleaf [6, 14]: 100; Plant response rating, Velvetleaf [6, 15]: 100; Plant response rating, Velvetleaf [6, 16]: 100; Plant response rating, Oat, Wild (wild oat (Avena fatua); [17]): 30; Plant response rating, Oat, Wild (wild oat (Avena fatua); [18]): 45; Plant response rating, Oat, Wild (wild oat (Avena fatua); [19]): 50; Plant response rating, Oat, Wild (wild oat (Avena fatua); 250 g ai/ha, scale 0 to 100 (0 no effect, 100 complete control)): 60; Plant response rating, Rice (0 to 100 scale, 0 is no effect, 100 is complete control) (rice (Oryza sativa)): 60; Plant response rating, Barnyardgrass (Barnyardgrass [7]; 31 g ai/ha, scale 0 (no effect) to 100 (complete control)): 75; Plant response rating, Barnyardgrass (Barnyardgrass [7]; [20]): 100; Plant response rating, Barnyardgrass (Barnyardgrass [7]; [19]): 100; Plant response rating, Velvetleaf [8, 21]: 100; Velvetleaf plant response rating ([8]; Postemergence, 500 g ai/ha, 0 to 100 scale, 0 is no effect, 100 is complete control): 100; Plant response rating, Velvetleaf [8, 22]: 30; Plant response rating, Velvetleaf [8, 23]: 90

Question: Which results are given for FCc1nn(-c2ccc(F)cc2)nc1Oc1ccnc(C(F)(F)F)c1 [Compound 160]?
Answer: Plant response rating, Wheat [1, 24]: 5; Plant response rating, Wheat [1, 9]: 5; Plant response rating, Wheat [1, 10]: 25; Plant response rating, Wheat [1, 11]: 25; Plant response rating, Wheat [1, 25]: 0; Plant response rating, Wheat [1, 14]: 15; Plant response rating, Wheat [1, 15]: 40; Plant response rating, Pigweed [2, 24]: 95; Plant response rating, Pigweed [2, 9]: 95; Plant response rating, Pigweed [2, 10]: 98; Plant response rating, Pigweed [2, 11]: 98; Plant response rating, Pigweed [2, 25]: 90; Plant response rating, Pigweed [2, 26]: 100; Plant response rating, Pigweed [2, 14]: 100; Plant response rating, Pigweed [2, 15]: 100; Plant response rating, Barnyardgrass (0 to 100 scale, 0 is no effect, 100 is complete control) [3]: 65; Plant response rating, Galium [4, 24]: 55; Plant response rating, Galium [4, 9]: 80; Plant response rating, Galium [4, 10]: 85; Plant response rating, Galium [4, 11]: 95; Plant response rating, Galium [4, 26]: 5; Plant response rating, Galium [4, 14]: 100; Plant response rating, Galium [4, 15]: 100; Plant response rating, Barnyardgrass (Barnyardgrass [5]): 35; Plant response rating, Velvetleaf [6, 24]: 20; Plant response rating, Velvetleaf [6, 9]: 30; Plant response rating, Velvetleaf [6, 10]: 50; Plant response rating, Velvetleaf [6, 11]: 75; Plant response rating, Velvetleaf [6, 25]: 0; Plant response rating, Velvetleaf [6, 26]: 5; Plant response rating, Velvetleaf [6, 14]: 30; Plant response rating, Velvetleaf [6, 15]: 30; Plant response rating, Oat, Wild (wild oat (Avena fatua); 16 g ai/ha, scale 0 to 100, 0 no effect, 100 complete control): 15; Plant response rating, Oat, Wild (wild oat (Avena fatua); [17]): 30; Plant response rating, Oat, Wild (wild oat (Avena fatua); [18]): 45; Plant response rating, Oat, Wild (wild oat (Avena fatua); [19]): 60; Plant response rating, Rice (0 to 100 scale, 0 is no effect, 100 is complete control) (rice (Oryza sativa)): 55; Plant response rating, Barnyardgrass (Barnyardgrass [7]; 16 g ai/ha, scale 0 (no effect) to 100 (complete control)): 5; Plant response rating, Barnyardgrass (Barnyardgrass [7]; 31 g ai/ha, scale of 0 to 100, 0 is no effect, 100 is complete control): 35; Plant response rating, Barnyardgrass (Barnyardgrass [7]; [20]): 90; Plant response rating, Barnyardgrass (Barnyardgrass [7]; [19]): 100; Plant response rating, Velvetleaf [8, 21]: 90; Velvetleaf plant response rating ([8]; Postemergence, 500 g ai/ha, visual rating on 0 to 100 scale (0 no effect, 100 complete control), approximately ten days): 100; Plant response rating, Velvetleaf [8, 22]: 50; Plant response rating, Velvetleaf [8, 23]: 70
